The source of these data is patent publication US11464749B2, “Bismuth-thiol compositions and methods of use” (Microbion Corporation, priority 2018, dated 2022).

The subject of the test is vancomycin-intermediate Staphylococcus aureus (VISA). Kind of test: Broth microdilution MIC (Example 12).

Molecules are shown by their SMILES. ≈ marks a conversion by molar mass, not a printed value. Where two headings read alike, the source gives them in different places. Bounds are passed on as bounds.

As a reminder, the MIC is the lowest concentration that inhibits growth of the organism. With `CN[C@H](CC(C)C)C(=O)N[C@H]1C(=O)N[C@@H](CC(N)=O)C(=O)N[C@H]2C(=O)N[C@H]3C(=O)N[C@H](C(=O)N[C@H](C(=O)O)c4cc(O)cc(O)c4-c4cc3ccc4O)[C@H](O)c3ccc(c(Cl)c3)Oc3cc2cc(c3O[C@@H]2O[C@H](CO)[C@@H](O)[C@H](O)[C@H]2O[C@H]2C[C@](C)(N)[C@H](O)[C@H](C)O2)Oc2ccc(cc2Cl)[C@H]1O` [VAN], the minimum inhibitory concentration (MIC) (S. aureus NRS 1 (hVISA)) was determined as 4 µg/mL (≈ 2.76 µM); the MIC (S. aureus NRS 2) was found to be 0.5 µg/mL (≈ 0.345 µM); the MIC (S. aureus NRS 3) came out at 8 µg/mL (≈ 5.52 µM); the minimal inhibitory concentration (MIC) (S. aureus NRS 4) came to 4 µg/mL (≈ 2.76 µM); the MIC (S. aureus NRS 13) was 2 µg/mL (≈ 1.38 µM); the minimum inhibitory concentration (MIC) (S. aureus NRS 18) stood at 4 µg/mL (≈ 2.76 µM). Also, the MIC was 4 µg/mL (≈ 2.76 µM) (S. aureus NRS 22), 2 µg/mL (≈ 1.38 µM) (S. aureus NRS 24 (hVISA)) and 2 µg/mL (≈ 1.38 µM) (S. aureus NRS 27).

Regarding `CC(=O)NC[C@H]1CN(c2ccc(N3CCOCC3)c(F)c2)C(=O)O1` [linezolid, reference compound], where the note is “Staphylococcus aureus, VISA, read-out: MIC values”, the minimal inhibitory concentration (MIC) was no more than 4 µg/mL.

As for `CCC[C@@H]1C[C@@H](C(=O)N[C@@H]([C@H]2O[C@H](SC)[C@H](O)[C@@H](O)[C@H]2O)[C@H](C)Cl)N(C)C1` [CLI], the MIC is greater than 8 µg/mL (S. aureus NRS 1 (hVISA)); greater than 8 µg/mL (S. aureus NRS 2); greater than 8 µg/mL (S. aureus NRS 3); greater than 8 µg/mL (S. aureus NRS 4); 0.06 µg/mL (≈ 0.141 µM) (S. aureus NRS 13); greater than 8 µg/mL (S. aureus NRS 18). The compound further gave an MIC (S. aureus NRS 22) greater than 8 µg/mL, an MIC (S. aureus NRS 24 (hVISA)) greater than 8 µg/mL and an MIC (S. aureus NRS 27) greater than 8 µg/mL.

As to `CCCCCCCCCC(=O)NC(Cc1c[nH]c2ccccc12)C(=O)NC(CC(N)=O)C(=O)NC(CC(=O)O)C(=O)NC1C(=O)NCC(=O)NC(CCCN)C(=O)NC(CC(=O)O)C(=O)NC(C)C(=O)NC(CC(=O)O)C(=O)NCC(=O)NC(CO)C(=O)NC(C(C)CC(=O)O)C(=O)NC(CC(=O)c2ccccc2N)C(=O)OC1C` (stereo not shown) [DAP], the minimum inhibitory concentration (MIC) was found to be 1 µg/mL (≈ 0.617 µM) (S. aureus NRS 1 (hVISA)); 0.25 µg/mL (≈ 0.154 µM) (S. aureus NRS 2); 1 µg/mL (≈ 0.617 µM) (S. aureus NRS 3); 0.5 µg/mL (≈ 0.309 µM) (S. aureus NRS 4); 2 µg/mL (≈ 1.23 µM) (S. aureus NRS 13); 0.5 µg/mL (≈ 0.309 µM) (S. aureus NRS 18). Moreover, the minimal inhibitory concentration (MIC) runs as follows: (S. aureus NRS 22) 2 µg/mL (≈ 1.23 µM); (S. aureus NRS 24 (hVISA)) 0.5 µg/mL (≈ 0.309 µM); (S. aureus NRS 27) 0.25 µg/mL (≈ 0.154 µM).

Regarding `CC(=O)NC[C@H]1CN(c2ccc(N3CCOCC3)c(F)c2)C(=O)O1` [LZD], the MIC (S. aureus NRS 1 (hVISA)) turned out to be 1 µg/mL (≈ 2.96 µM); the MIC (S. aureus NRS 2) amounted to 4 µg/mL (≈ 11.9 µM); the MIC (S. aureus NRS 3) was found to be 1 µg/mL (≈ 2.96 µM); the minimum inhibitory concentration (MIC) (S. aureus NRS 4) was 1 µg/mL (≈ 2.96 µM); the minimal inhibitory concentration (MIC) (S. aureus NRS 13) was determined as 2 µg/mL (≈ 5.93 µM); the minimum inhibitory concentration (MIC) (S. aureus NRS 18) is 1 µg/mL (≈ 2.96 µM). For the same compound, the MIC runs as follows: (S. aureus NRS 22) 1 µg/mL (≈ 2.96 µM); (S. aureus NRS 24 (hVISA)) 2 µg/mL (≈ 5.93 µM); (S. aureus NRS 27) 2 µg/mL (≈ 5.93 µM).
